Assay results: PubChem BioAssay AID1963976 (Molecular Pharmacology Branch, DTP, NCI, 2024)
pIC50: −log10 of the molar value.

Test system: 435261-313-R-J1-PDC tumor spheroid viability
Assay: Anticancer human tumor 435261-313-R-J1-PDC patient-derived colon adenocarcinoma cell line growth inhibition [PI3K]
Settings: spheroids with HUVEC and MSC; for pIC50: curve of first compound; for viability, T/C: stronger effect = lower value
Description: Combinatorial screen of targeted agents with the PI3K inhibitors inavolisib, alpelisib, duvelisib, and copanlisib in multi-cell type tumor spheroids
A high-throughput screen of multi-cell type tumor spheroids was designed to identify active combinations of targeted small molecules and PI3K pathway inhibitors. Complex spheroids include a stromal component modeled by human endothelial cells (HUVEC) and fibroblasts modeled by human mesenchymal stem cells (MSCs). The concentration ranges selected for each drug and investigational agent were based upon clinically achievable concentrations if the clinical Cmax of the agent was known.
Compounds. The drugs and investigational agents: inavolisib (NSC800729), alpelisib (NSC765974), duvelisib (NSC772469), copanlisib (NSC816437), ipatasertib (NSC767898), afuresertib (NSC778305), talazoparib (NSC767125), sapanisertib (NSC764658), selumetinib (NSC741078), tovorafenib (DAY101, NSC766906), vemurafenib (NSC761431), ravoxertinib (NSC781343), sotorasib (NSC818433), MRTX1133 (NSC 836407), abemaciclib (NSC 768073), palbociclib (NSC758247), venetoclax (NSC 766270), SY5609 (NSC837396), enzalutamide (NSC755605), and darolutamide (NSC825331), were obtained from the National Cancer Institute (NCI) Developmental Therapeutics Program Chemical Repository. The FDA-approved anticancer drug set is available from the NCI Developmental Therapeutics Program. […] The stock solutions were prepared in dimethyl sulfoxide (DMSO, Sigma-Aldrich, St. Louis, MO, cat. D2650) at 800-fold the tested concentration and stored at -70 degrees C prior to their use. All drugs and investigational agents were tested over a range starting from a high concentration at or near the clinical Cmax and decreasing in half-log increments. If the clinical Cmax for an agent had not been determined, the highest concentration tested was 10 microM.
Cell Culture. All cells were maintained in an incubator at 37 degrees C and 5% CO2 with 95% humidity. The PDC lines were cultured according to standard operating procedures established by the NCI PDMR (https://pdmr.cancer.gov/sops/default.htm). All PDCs were thawed and cultured in Matrigel-coated flasks prepared with a working solution of 1X Ham's F-12 nutrient mix, without supplementation (Invitrogen, Waltham, MA, cat. 11765054), 100 U/mL penicillin-streptomycin (Invitrogen, cat. 15140122), and 2.5% Matrigel (Corning Inc., Corning, NY, cat. 354248) for the first three passages. The 354836-022-R-J1-PDC, 475296-252-R-J1-PDC, and 997726-040-R-J2-PDC lines were cultured in 6A media, which includes advanced DMEM/F-12 (Thermo Fisher Scientific, cat. 12634028), 10 mM HEPES (Thermo Fisher Scientific, cat. 15630080), 1X GlutaMAX supplement (Thermo Fisher Scientific, cat. 35050061), 0.1 mg/mL primocin (InvivoGen, San Diego, CA, cat. ant-pm-2), 10% defined fetal bovine serum, heat inactivated (HyClone Laboratories Inc., Logan, UT, cat. SH30070.03HI), 50% L-WRN conditioned media (ATCC, cat. CRL-3276), 1.25 mM N-Acetyl-L-cysteine (Sigma-Aldrich, cat. A9165), 10 mM nicotinamide (Sigma-Aldrich, cat. N0636), 1X B-27 supplement (Thermo Fisher Scientific, cat. 17504044), 1X N-2 supplement (Thermo Fisher Scientific, cat. 17502048), and 10 microM Y-27632 dihydrochloride (Tocris Bioscience, Bristol, United Kingdom, cat. 1254). The 624824-186-R-J2-PDC line was cultured in 6C/Colon 1B media, which includes all 6A media components plus 50 ng/mL human EGF recombinant protein (Thermo Fisher Scientific, cat. PHG0311). […]
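Also: spheroids exposed to compounds for 7 days.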

`CC(=O)c1c(C)c2cnc(Nc3ccc(N4CCNCC4)cn3)nc2n(C2CCCC2)c1=O` + CC(Nc1ccc2c(c1)OCCn1cc(N3C(=O)OCC3C(F)F)nc1-2)C(N)=O showed a pIC50 (second compound 0.00316 µM) of less than 7.00, a pIC50 (second compound 0.01 µM) of less than 7.00 and a pIC50 (second compound 0.0316 µM) of 7.16. It also gave a pIC50 (second compound 0.1 µM) of 9.34, a pIC50 (second compound 0.316 µM) greater than 9.50 and a pIC50 (second compound 1 µM) greater than 9.50. For the same compound, the viability, T/C (second compound 0.00316 µM, first compound 0.000316 µM) was 78.8%, the viability, T/C (second compound 0.00316 µM, first compound 0.001 µM) was 91.4% and the viability, T/C (second compound 0.00316 µM, first compound 0.00316 µM) was 92.8%. The viability, T/C (second compound 0.00316 µM, first compound 0.01 µM) was 82.7%, the viability, T/C (second compound 0.00316 µM, first compound 0.0316 µM) was 84.2% and the viability, T/C (second compound 0.00316 µM, first compound 0.1 µM) was 59.2%. It also gave a viability, T/C (second compound 0.01 µM, first compound 0.000316 µM) of 94.7%, a viability, T/C (second compound 0.01 µM, first compound 0.001 µM) of 83.6% and a viability, T/C (second compound 0.01 µM, first compound 0.00316 µM) of 100%. The viability, T/C (second compound 0.01 µM, first compound 0.01 µM) was 91.7%, the viability, T/C (second compound 0.01 µM, first compound 0.0316 µM) was 87.5% and the viability, T/C (second compound 0.01 µM, first compound 0.1 µM) was 68.6%. For the same compound, the viability, T/C (second compound 0.0316 µM, first compound 0.000316 µM) was 64.2%, the viability, T/C (second compound 0.0316 µM, first compound 0.001 µM) was 66.7% and the viability, T/C (second compound 0.0316 µM, first compound 0.00316 µM) was 76.9%. It also gave a viability, T/C (second compound 0.0316 µM, first compound 0.01 µM) of 86.2%, a viability, T/C (second compound 0.0316 µM, first compound 0.0316 µM) of 69.1% and a viability, T/C (second compound 0.0316 µM, first compound 0.1 µM) of 40.4%. For the same compound, the viability, T/C (second compound 0.1 µM, first compound 0.000316 µM) was 49.2%, the viability, T/C (second compound 0.1 µM, first compound 0.001 µM) was 52.7% and the viability, T/C (second compound 0.1 µM, first compound 0.00316 µM) was 38.8%. The viability, T/C (second compound 0.1 µM, first compound 0.01 µM) was 32.5%, the viability, T/C (second compound 0.1 µM, first compound 0.0316 µM) was 33.6% and the viability, T/C (second compound 0.1 µM, first compound 0.1 µM) was 23.6%. The viability, T/C (second compound 0.316 µM, first compound 0.000316 µM) was 21.7%, the viability, T/C (second compound 0.316 µM, first compound 0.001 µM) was 22% and the viability, T/C (second compound 0.316 µM, first compound 0.00316 µM) was 19.3%. The viability, T/C (second compound 0.316 µM, first compound 0.01 µM) was 21.5%, the viability, T/C (second compound 0.316 µM, first compound 0.0316 µM) was 20.5% and the viability, T/C (second compound 0.316 µM, first compound 0.1 µM) was 18.1%. It also gave a viability, T/C (second compound 1 µM, first compound 0.000316 µM) of 16.8%, a viability, T/C (second compound 1 µM, first compound 0.001 µM) of 17.1% and a viability, T/C (second compound 1 µM, first compound 0.00316 µM) of 17.7%. It also gave a viability, T/C (second compound 1 µM, first compound 0.01 µM) of 16.5%, a viability, T/C (second compound 1 µM, first compound 0.0316 µM) of 18.2% and a viability, T/C (second compound 1 µM, first compound 0.1 µM) of 12.2%.
